Assay results as given in PMC12109337, “Engineered Fluorescent Variants of Lactadherin C2 Domain for Phosphatidylserine Detection in Flow Cytometry” (Biomolecules, 2025).

Tests used:
[1] = target: T1, axV-mNG (Homo sapiens, UniProt P08758); assay: equilibrium binding to liposomes, flow cytometry; conditions: 20:80 PS/PC liposomes, not free lipid; Kd is the protein concentration at half occupation; Hill coefficient ~1.2; HBS pH 7.4 with 2.5 mM CaCl2; 1 h; read-out: Kd (apparent, Hill)
T1 construct: gene ANXA5; N-terminal 6xHis, annexin V with C-terminal mNeonGreen fusion (also printed mNG-axV), tags kept, pET-28a(+), E. coli Rosetta-Gami 2(DE3)pLysS, Ni-NTA
T1 sequence (P08758 2-320): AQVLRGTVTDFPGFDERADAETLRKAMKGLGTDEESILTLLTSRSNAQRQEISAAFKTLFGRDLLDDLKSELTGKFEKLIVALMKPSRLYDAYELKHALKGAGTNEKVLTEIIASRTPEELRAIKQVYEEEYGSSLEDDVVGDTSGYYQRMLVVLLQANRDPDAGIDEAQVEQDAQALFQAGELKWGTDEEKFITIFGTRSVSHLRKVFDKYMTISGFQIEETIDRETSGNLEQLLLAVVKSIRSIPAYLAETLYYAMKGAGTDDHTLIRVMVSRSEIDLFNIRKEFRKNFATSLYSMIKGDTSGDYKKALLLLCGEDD

[2] = target: T2, mNG-lactC2 (Bos taurus, UniProt Q95114); assay: equilibrium binding to liposomes, flow cytometry; conditions: 20:80 PS/PC liposomes, not free lipid; Kd is the protein concentration at half occupation; Hill coefficient ~1.2; HBS pH 7.4, no calcium; 1 h; read-out: Kd (apparent, Hill)
T2 construct: gene MFGE8; C2 domain (residues 270-427), N-terminal 6xHis and mNeonGreen fusion kept, pET-28a(+), E. coli Rosetta-Gami 2(DE3)pLysS, Ni-NTA
T2 sequence (Q95114 270-427): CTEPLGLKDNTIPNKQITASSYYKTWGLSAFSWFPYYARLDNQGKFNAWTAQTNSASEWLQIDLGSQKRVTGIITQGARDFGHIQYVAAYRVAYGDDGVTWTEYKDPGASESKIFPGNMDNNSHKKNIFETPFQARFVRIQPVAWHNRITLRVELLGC

1,2-diacyl-sn-glycero-3-phospho-L-serine [phosphatidylserine]
Kd [1]: 10 nM | Kd [2]: 107 nM
